Measurements as given in the Deep4Chem optical property database.
Where “and” joins values, the source holds several entries; their conditions need not be identical. Equal values may be shown once. Blank lines part the entries; values can stand above or below the compound they belong to.

Experiment: solvent given as SMILES

absorption maximum (in C1CCCCC1): 310 nm
absorption maximum (in CC#N): 306 nm
absorption maximum (in CO): 309 nm
absorption maximum (in ClCCl): 312 nm
Structure (SMILES): C#Cc1cccc2ccccc12

absorption maximum (in ClCCl): 347 nm
Structure (SMILES): F[B-]1(F)Oc2ccc(Br)cc2-c2c3c(c4c([n+]21)CCc1ccccc1-4)CCc1ccccc1-3

absorption maximum (in ClCCl): 535 nm
Structure (SMILES): COc1ccc(C2=C(C)C3=C(c4c(-c5ccccn5)nc5ccccn45)c4c(C)cc(C)n4[B-](F)(F)[N+]3=C2C)cc1

absorption maximum (in ClCCl): 300 nm
Structure (SMILES): Cc1cc2ccccc2c2[nH]c3ccccc3c12

absorption maximum (in ClCCl): 322 nm
Structure (SMILES): COC(=O)c1c(-c2cc3ccccc3oc2=O)nn(-c2ccccc2)c1C(=O)OC

absorption maximum (in CCO): 425 nm
Structure (SMILES): CCCCOc1c(C=C2N(C)c3ccccc3C2(C)C)c(=O)c1=O

absorption maximum (in CC#N): 353 nm
Structure (SMILES): COc1ccc(C#Cc2cc3ccccc3oc2=O)cc1

absorption maximum (in CC#N): 382 nm
Structure (SMILES): N#C/C(=C\c1ccc([N+](=O)[O-])cc1)c1nc(-c2ccccc2)cs1

absorption maximum (in O): 646 nm
Structure (SMILES): Cc1cc(N(C)C)ccc1C1=C2C=CC(=[N+](C)C)C=C2[Si](C)(C)c2cc(N(C)C)ccc21

absorption maximum (in C1CCCCC1): 269 nm
absorption maximum (in CC#N): 267 nm
absorption maximum (in CCO): 273 nm
absorption maximum (in CCOC(C)=O): 267 nm
absorption maximum (in O): 273 nm
Structure (SMILES): Cc1oc(-c2ccccc2)nc1C(=O)O

absorption maximum (in CCO): 333 nm
absorption maximum (in ClC(Cl)Cl): 339 nm
Structure (SMILES): COc1ccc2c(-c3nc(-c4ccccc4F)no3)cc(=O)oc2c1

absorption maximum (in ClCCl): 442 nm
Structure (SMILES): CCN(CC)c1ccc2cc(-c3nc4cc(C(=O)Nc5ccccc5)ccc4o3)c(=O)oc2c1

absorption maximum (in C1CCCCC1): 366 nm
Structure (SMILES): CCn1c2ccccc2c2ccc(C#N)cc21

absorption maximum (in C1COCCO1): 393 nm
Structure (SMILES): N#Cc1ccc(/C=C2\N=C(c3ccccc3)NC2=O)cc1

absorption maximum (in ClCCl): 259 nm
Structure (SMILES): Cc1ccc(C)n1-c1cccc(C#N)c1

absorption maximum (in CC#N): 359 nm
absorption maximum (in ClCCl): 360 nm
Structure (SMILES): Cc1cc(O)c(C(=O)/C=C/c2ccccc2O)c(=O)o1

absorption maximum (in ClCCl): 414 nm
Structure (SMILES): CN(C)c1ccc(C#Cc2nc(-c3ccccc3)nc3ccccc23)cc1

absorption maximum (in CO): 308 nm
Structure (SMILES): N#Cc1cccc(-c2nc(-c3ccccc3)c(-c3ccccc3)[nH]2)c1

absorption maximum (in C1CCOC1): 342 nm
Structure (SMILES): O=P1(c2ccccc2)C(c2ccc(C(F)(F)F)cc2)=Cc2ccccc21 (centres undefined)

absorption maximum (in C1CCCCC1): 294 nm
Structure (SMILES): c1ccc2[nH]ncc2c1

absorption maximum (in ClCCl): 445 nm
Structure (SMILES): [O-][n+]1c(-c2ccccc2)cc(N2CCOCC2)nc1/C=C/c1ccccc1

absorption maximum (in O): 646 nm
Structure (SMILES): Cc1ccc(C)c(C2=C3C=CC(=[N+](C)C)C=C3[Si](C)(C)c3cc(N(C)C)ccc32)c1

absorption maximum (in C1CCCCC1): 265.96 nm
Structure (SMILES): Oc1ccccc1

absorption maximum (in CC#N): 347 nm
absorption maximum (in CCO): 350 nm
Structure (SMILES): Cc1cc(=O)oc2ccc3ccc(O)cc3c12

absorption maximum (in CC#N): 327 nm
absorption maximum (in ClCCl): 343 nm
Structure (SMILES): Cc1cc(-c2ccccc2C)cc(C)[o+]1

absorption maximum (in CC#N): 344 nm
absorption maximum (in CCCCCCCCCCCCCCCC): 333 nm
absorption maximum (in CO): 353 nm
absorption maximum (in ClC(Cl)Cl): 341 nm
absorption maximum (in c1ccccc1): 339 nm
Structure (SMILES): CC(C)(C)C1Nc2ccccc2C(=O)N1Cc1ccccc1 (centres undefined)

absorption maximum (in CC#N): 606 nm
absorption maximum (in CS(C)=O): 616 nm
absorption maximum (in ClC(Cl)Cl): 619 nm
Structure (SMILES): C#CCn1c2ccccc2c2cc(/C=C/c3c(Cl)c(C)c4n3[B-](F)(F)[N+]3=C(C)C(Cl)=C(C)C3=C4c3ccc(I)cc3)ccc21

absorption maximum (in ClCCl): 371 nm
Structure (SMILES): Cc1ccc2nc3cc4c(cc3c(-c3ccccc3)c2c1)[Si](C)(C)O[Si](C)(C)O[Si]4(C)C

absorption maximum (in ClCCl): 448 nm
Structure (SMILES): O=C1c2ccccc2C2=Nc3cccc4cccc(c34)N12

More lines, now with the values behind:

Structure (SMILES): CCCCn1c(-c2ccc(-c3nnc(-c4ccc5ccccc5c4)o3)cc2)nc(-c2ccccc2)c1-c1ccccc1
absorption maximum (in ClCCl): 340 nm

Structure (SMILES): N#C/C(=C\c1ccc(C#N)cc1)c1nc(-c2ccc(Cl)cc2)c(-c2ccccc2)s1
absorption maximum (in CC#N): 377 nm

Structure (SMILES): c1ccc(-c2nc(-c3ccc(-c4nc(-c5ccccc5)c(-c5ccccc5)[nH]4)s3)[nH]c2-c2ccccc2)cc1
absorption maximum (in C1CCOC1): 386 nm
absorption maximum (in CC#N): 385 nm
absorption maximum (in CC(=O)O): 392 nm
absorption maximum (in CC(C)=O): 384 nm and 385 nm
absorption maximum (in CCOC(C)=O): 385 nm
absorption maximum (in CCOCC): 384 nm
absorption maximum (in CO): 382 nm
absorption maximum (in ClC(Cl)Cl): 395 nm and 394.99 nm

Structure (SMILES): N#C/C(=C\c1cc(/C=C(\C#N)c2ccc(C(F)(F)F)cc2)c(-c2ccc(N(c3ccccc3)c3ccccc3)cc2)cc1-c1ccc(N(c2ccccc2)c2ccccc2)cc1)c1ccc(C(F)(F)F)cc1
absorption maximum (in C1CCCCC1): 405 nm
absorption maximum (in C1CCOC1): 402 nm
absorption maximum (in CCCCCC): 402 nm
absorption maximum (in CCOC(C)=O): 397 nm
absorption maximum (in Cc1ccccc1): 408 nm
absorption maximum (in ClC(Cl)Cl): 407 nm
absorption maximum (in ClCCl): 405 nm

Structure (SMILES): c1ccc2c(-c3ccc(-n4c5ccccc5c5ccccc54)cc3)c3c(nc2c1)-c1cc2c(cc1CC3)-c1nc3ccccc3c(-c3ccc(-n4c5ccccc5c5ccccc54)cc3)c1CC2
absorption maximum (in ClC(Cl)Cl): 377 nm

Structure (SMILES): O=C1c2ccc(-c3ccc(N(c4ccccc4)c4ccccc4)cc3)cc2C(=O)c2ccc(-c3ccc(N(c4ccccc4)c4ccccc4)cc3)cc21
absorption maximum (in Cc1ccccc1): 454 nm

Structure (SMILES): CCCCOc1c(-c2c(OCCCC)c3oc4cc5ccccc5cc4c3c3ccccc23)c2ccccc2c2c1oc1cc3ccccc3cc12
absorption maximum (in C1CCOC1): 366 nm

Structure (SMILES): CC1=NN(c2ccccc2)C(=O)/C1=C\c1cn(-c2ccccc2)nc1-c1ccc([N+](=O)[O-])cc1
absorption maximum (in C1CCOC1): 343 nm
absorption maximum (in C1COCCO1): 361 nm
absorption maximum (in CCO): 362 nm
absorption maximum (in CCOC(C)=O): 359 nm
absorption maximum (in CN(C)C=O): 361 nm
absorption maximum (in CO): 360 nm
absorption maximum (in CS(C)=O): 364 nm
absorption maximum (in Cc1ccccc1): 364 nm
absorption maximum (in ClC(Cl)Cl): 363 nm

Structure (SMILES): C(S/C=C/c1ccc(-c2ccc(/C=C/SC=C3CCCC3)cc2)cc1)=C1CCCC1
absorption maximum (in ClCCl): 352 nm

Structure (SMILES): CCOC(=O)C1=C(N)n2c(=O)c3ccccc3c(=O)n2C1c1ccc([N+](=O)[O-])cc1 (centres undefined)
absorption maximum (in CS(C)=O): 358 nm

Structure (SMILES): CCCCc1ccc2c(c1)c1ccc3cccc4c3c1c1c2c2cccc3ccc5c6cc(CCCC)ccc6c4c1c5c32
absorption maximum (in ClCCl): 492 nm

Structure (SMILES): CCCCCCCCCC[n+]1cc2ccc3c[n+](CCCCCCCCCC)cc4ccc(c1)c2c34
absorption maximum (in CC#N): 418 nm

Structure (SMILES): Cc1cc(N2c3ccccc3[Si](c3ccccc3)(c3ccccc3)c3ccccc32)c(C)cc1-c1nc(-c2ccccc2)nc(-c2ccccc2)n1
absorption maximum (in Cc1ccccc1): 365.47 nm

Structure (SMILES): C(S/C=C/c1ccc(-c2ccc(/C=C/SC=C3CCCCC3)cc2)cc1)=C1CCCCC1
absorption maximum (in ClCCl): 351 nm

Structure (SMILES): CCn1c2ccccc2c2c3nsnc3c3c4ccccc4n(CC)c3c21
absorption maximum (in CN(C)C=O): 420 nm
absorption maximum (in Cc1ccccc1): 420 nm
absorption maximum (in ClCCl): 420 nm

Structure (SMILES): F[B-]1(F)n2c(c3cccc4cccc2c43)=Nc2cccc[n+]21
absorption maximum (in C1CCOC1): 468 nm
absorption maximum (in CC#N): 460 nm
absorption maximum (in CCCCCC): 473 nm
absorption maximum (in Cc1ccccc1): 472 nm
absorption maximum (in ClCCl): 438 nm

Structure (SMILES): F[B-]1(F)n2c(c(-c3ccccc3)c(-c3cccs3)c2-c2ccccc2)N=C2C(c3ccccc3)=C(c3cccs3)C(c3ccccc3)=[N+]21
absorption maximum (in ClCCl): 650 nm

Structure (SMILES): CCN(CC)c1ccc2c(c1)oc(=O)c1c(=O)oc3cc(C#Cc4ccc(N(C)C)cc4)ccc3c12
absorption maximum (in CS(C)=O): 468 nm
absorption maximum (in ClCCl): 459 nm

Structure (SMILES): COc1ccc(-c2nc(-c3ccc(C#N)cc3)[nH]c2-c2ccc(OC)cc2)cc1
absorption maximum (in CO): 354 nm

Structure (SMILES): COc1ccc(C2=C3C=c4c(oc5ccccc45)=[N+]3[B-](F)(F)n3c2cc2c4ccccc4oc23)cc1
absorption maximum (in C1CCCCC1): 583.5 nm
absorption maximum (in CCOC(C)=O): 578 nm
absorption maximum (in CO): 576.5 nm

Structure (SMILES): CC(C)[Si](C#Cc1c2ccccc2c(C#C[Si](C(C)C)(C(C)C)C(C)C)c2nc3c4ccccc4c(=O)c4ccccc4c3nc12)(C(C)C)C(C)C
absorption maximum (in ClCCl): 509 nm

Structure (SMILES): O=[N+]([O-])c1cccs1
absorption maximum (in CO): 308 nm
absorption maximum (in O): 318 nm

Structure (SMILES): CC1(C)C(/C=C/C=C/C=C/C=C2/N(c3ccc(S(=O)(=O)[O-])cc3)c3ccc(S(=O)(=O)[O-])cc3C2(C)C)=[N+](c2ccc(S(=O)(=O)[O-])cc2)c2ccc(S(=O)(=O)[O-])cc21
absorption maximum (in CO): 759 nm
absorption maximum (in O): 754 nm

Structure (SMILES): Cc1ccc(C2=C(/C=C/C(=O)OC3CC[C@@]4(C)C(=CC[C@H]5[C@@H]6CC[C@H]([C@H](C)CCCC(C)C)[C@@]6(C)CC[C@@H]54)C3)C(c3ccc(C)cc3)=[N+]3C2=Nc2c(-c4ccc(C)cc4)c(Br)c(-c4ccc(C)cc4)n2[B-]3(F)F)cc1 (some centres undefined)
absorption maximum (in ClC(Cl)Cl): 662 nm

Structure (SMILES): Cc1ccc2[nH]c(-c3ccc(-c4ccc(-c5ccc(-c6nc7cc(C)ccc7[nH]6)cc5)c(F)c4)cc3)nc2c1
absorption maximum (in CN(C)C=O): 344 nm

Structure (SMILES): CCCCCCOc1cc(C=C2C(=C(C#N)C#N)c3ccccc3C2=C(C#N)C#N)c(OCCCCCC)cc1C=C1C(=C(C#N)C#N)c2ccccc2C1=C(C#N)C#N
absorption maximum (in ClCCl): 542 nm

Structure (SMILES): CCCCc1ccc(-n2c3c4cc(F)ccc4nnc3c3c2c2nnc4ccc(F)cc4c2n3-c2ccc(CCCC)cc2)cc1
absorption maximum (in Cc1ccccc1): 315 nm

Structure (SMILES): N#Cc1c(-c2ccc(N(c3ccccc3)c3ccccc3)cc2)c(C#N)c(-c2ccc(N(c3ccccc3)c3ccccc3)cc2)c(C#N)c1-c1ccc(N(c2ccccc2)c2ccccc2)cc1
absorption maximum (in O=P(c1ccccc1)(c1ccccc1)c1ccccc1Oc1ccccc1P(=O)(c1ccccc1)c1ccccc1): 420 nm

Structure (SMILES): CCCCCCCCCCOc1cc(OCCCCCCCCCC)cc(C2=C3C(C)=CC(/C=C/c4ccc(OC)cc4)=[N+]3[B-](F)(F)n3c(/C=C/c4ccc(OC)cc4)cc(C=Cc4ccc(OC)cc4)c32)c1
absorption maximum (in ClC(Cl)Cl): 665 nm

Structure (SMILES): CCn1c2ccccc2c2cc(C#Cc3cc(C#Cc4ccc5c(c4)c4ccccc4n5CC)ncn3)ccc21
absorption maximum (in C1CCOC1): 382 nm
absorption maximum (in CCOC(C)=O): 379 nm
absorption maximum (in CN(C)C=O): 386 nm
absorption maximum (in Cc1ccccc1): 383 nm
absorption maximum (in ClCCl): 386 nm

Structure (SMILES): CC1(C)c2ccccc2N(c2ccc(C(=O)/C=C(\O)c3ccc(N4c5ccccc5C(C)(C)c5ccccc54)cc3)cc2)c2ccccc21
absorption maximum (in Cc1ccccc1): 406 nm

Structure (SMILES): CC(C)c1cc(C(C)C)c(B2c3ccccc3Oc3cc(-n4c5ccccc5c5c6c(c7ccccc7n6-c6ccccc6)c6c(c7ccccc7n6-c6ccccc6)c54)ccc32)c(C(C)C)c1
absorption maximum (in Cc1ccccc1): 458 nm
